Experimental data: PMC10258794, “To Fold or Not to Fold: Diastereomeric Optimization of an α-Helical Antimicrobial Peptide” (Journal of Medicinal Chemistry, 2023)
Converted amounts (≈) assume the structure as drawn. Read-outs that look alike come from different tables or passages of the source.

Experiments:
K. pneumoniae Oxa-48 = experiment: MIC broth microdilution, K. pneumoniae Oxa-48; assay type: cell-based, Klebsiella pneumoniae; conditions: MDR strain; MH broth pH 7.4, 16–20 h, 37 °C
Experimental: (§1) Antimicrobial activity was determined for all peptides on E. coli W3110, P. aeruginosa PAO1, A. baumannii ATCC19606, K. pneumoniae NCTC418, and methicillin-resistant S. aureus COL and for selected peptides on P. aeruginosa PA14 and the polymyxin B-resistant derivatives PA14 4.13, PA14 4.18, and PA14 2P4 as well as the clinical isolates ZEM-1A and ZEM9A, K. pneumoniae OXA-48, Enterobacter cloacae, Stenotrophomonas maltophilia, B. cenocepacia, and Staphylococus epidermis. To determine the MIC, the broth microdilution method was used.[75] A single bacterial colony was grown in LB medium overnight at 37 °C and 180 rpm shaking. The compounds were prepared as stock solutions of 2 mg/mL in sterilized milliQ deionized water, added to the first well of 96-well sterile, polypropylene round-bottom microtiter plates (TPP, untreated, Corning Incorporated, Kennebunk, USA), and diluted serially by 1/2. […] The bacterial inoculum was prepared by measuring the absorbance of the overnight culture, which was diluted to concentration of the bacteria was quantified by measuring absorbance at 600 nm and diluted to an OD600 of 0.022 in MH medium pH 7.4 (Sigma-Aldrich, Buchs, Switzerland). The sample solutions (150 μL) were mixed with 4 μL of diluted bacterial suspension with a final inoculation of about 5 × 10^5 CFU. For each test, two columns of the plate were kept for sterility control (MH medium only) and growth control (MH medium with bacterial inoculum, no compound). […] The plates were incubated at 37 °C for 16–20 h under static conditions. 15 μL of 3-(4,5-dimethylthiazol-2-yl)-2,5-diphenyltetrazolium bromide (MTT)[76] (1 mg/mL in sterilized milliQ deionized water) was added to each well, and the plates were incubated at room temperature until MTT staining was completed. The MIC was defined as the lowest concentration of the dendrimer that inhibits the visible growth of the tested bacteria (yellow) with the unaided eye.

K. pneumoniae NCTC418 = system: K. pneumoniae NCTC418
How it was run: (§2)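 MTT read-out: lowest concentration with no visible growth (yellow wells, unaided eye) taken as MIC. Inoculum ~5 × 10^5 CFU in MH pH 7.4 from OD600 0.022 dilution; 2-fold compound series; 16–20 h, 37 °C, no shaking.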

A. baumannii ATCC19606 = system: A. baumannii ATCC19606
How it was run: as §2

E. coli W3110 = system: E. coli W3110
How it was run: as §2

S. aureus COL MRSA = conditions: for MIC S. aureus COL MRSA: MH broth pH 7.4, 16–20 h, 37 °C; for MIC S. aureus COL: supplementary CSV, ranges of Table 1 given as one number
How it was run: as §2

P. aeruginosa PAO1 = system: P. aeruginosa PAO1
How it was run: as §2

[1] = system: Stenotrophomonas maltophilia; experiment: microbe, parasite or virus in culture; assay type: cell-based; conditions: pH 7.4
Experimental: as §1

P. aeruginosa ZEM9A = experiment: microbe, parasite or virus in culture; assay type: cell-based, Pseudomonas aeruginosa; conditions: pH 7.4
Experimental: as §1

S. aureus Newman = conditions: for MIC S. aureus Newman: MH broth pH 7.4, 16–20 h, 37 °C; for MIC S. aureus Newmann: supplementary CSV
Staphylococcus epidermis = experiment: MIC broth microdilution, Staphylococcus epidermis; assay type: cell-based; conditions: pH 7.4
Experimental: as §1

A549 cells = experiment: Alamar blue cytotoxicity, A549; assay type: cell-based, human; conditions: 24 h, mean ± SD, n = 3, read-out: Toxicity on A549 lung cancern cells
Experimental: (§3) The A549 human lung adenocarcinoma cells are derived from a patient and were kindly given to us by Dr. Georgia Konstatinidou (Pharmacology Institute, Bern University). HEK293T cells were obtained from ATCC (CRL-11268). A549 and HEK293 were cultured in an incubator at 37 °C with 5% CO2 in RPMI-1640 (Gibco) and DMEM (Gibco) containing 10% fetal bovine serum (Thermo Fisher), 100 I.U./mL penicillin, and 100 μg/mL streptomycin (Gibco).
(§4) The viability of the cells was assessed with an AlamarBlue assay (ThermoFisher). Cells were seeded into 96-well plates, 4000 cells/well (HEK293) and 8000 cells/well (A549), the day before the experiment. Cells were then treated with the increasing concentration of the compound and incubated for 24 h at 37 °C in the presence of 5% CO2. The next day, the medium was removed and replaced by a 10% AlamarBlue solution in full growth medium (DMEM or RPMI-1640). The cells were incubated for 3–5 h at 37 °C with 5% CO2 in a humidified atmosphere. The fluorescence was then measured on a Tecan Infinite M1000 Pro plate reader at λex 560 nm and λem 590 nm. The value was normalized according to the untreated cells.

Burkolderia cenocepacia = experiment: microbe, parasite or virus in culture; conditions: for MIC Burkolderia cenocepacia: MDR strain, MH broth pH 7.4, 16–20 h, 37 °C; for MIC B. cenocepacia: supplementary CSV
Experimental: as §1

P. aeruginosa ZEM-1A = experiment: microbe, parasite or virus in culture; conditions: pH 7.4
Experimental: as §1

PA14 4.13 (phoQ) = experiment: microbe, parasite or virus in culture; conditions: supplementary CSV
Experimental: as §1

P. aeruginosa PA14 = experiment: microbe, parasite or virus in culture; conditions: for MIC PA14: MH broth pH 7.4, 16–20 h, 37 °C; for MIC P. aeruginosa PA14: supplementary CSV
Experimental: as §1

PA14 2P4 (pmrB) = experiment: microbe, parasite or virus in culture; conditions: supplementary CSV
Experimental: as §1

Enterobacter cloacae = experiment: microbe, parasite or virus in culture; conditions: pH 7.4
Experimental: as §1

PA14 4.18 (pmrB) = experiment: microbe, parasite or virus in culture; conditions: supplementary CSV
Experimental: as §1

HEK293 cells = experiment: Alamar blue cytotoxicity, HEK293; assay type: cell-based, human; conditions: 24 h, mean ± SD, n = 3, read-out: Toxicity on HEK293 cells
Experimental: as §3, §4

[2] = MH broth pH 7.4, 16–20 h, 37 °C
[3] = supplementary CSV, ranges of Table 1 given as one number

SMILES	MIC K. pneumoniae Oxa-48 (K. pneumoniae Oxa-48) [µg/mL]	MIC K. pneumoniae NCTC418 (K. pneumoniae NCTC418; [2]) [µg/mL]	MIC K. pneumoniae NCTC418 (K. pneumoniae NCTC418; [3]) [µg/mL]	MIC A. baumannii ATCC19606 (A. baumannii ATCC19606; [2]) [µg/mL]	MIC A. baumannii ATCC19606 (A. baumannii ATCC19606; [3]) [µg/mL]	MIC E. coli W3110 (E. coli W3110; [2]) [µg/mL]	MIC S. aureus COL MRSA (S. aureus COL MRSA) [µg/mL]	MIC S. aureus COL (S. aureus COL MRSA) [µg/mL]	MIC P. aeruginosa PAO1 (P. aeruginosa PAO1; [2]) [µg/mL]	MIC P. aeruginosa PAO1 (P. aeruginosa PAO1; [3]) [µg/mL]	MIC Stenotrophomonas maltophilia [1] [µg/mL]	MIC ZEM9A (P. aeruginosa ZEM9A) [µg/mL]	MIC S. aureus Newman (S. aureus Newman) [µg/mL]	MIC S. aureus Newmann (S. aureus Newman) [µg/mL]	MIC Staphylococcus epidermis (Staphylococcus epidermis) [µg/mL]	IC50 (A549 cells) [µM]	MIC Burkolderia cenocepacia (Burkolderia cenocepacia) [µg/mL]	MIC ZEM-1A (P. aeruginosa ZEM-1A) [µg/mL]	MIC P. aeruginosa PA14 4.13 (PA14 4.13 (phoQ)) [µg/mL]	MIC PA14 (P. aeruginosa PA14) [µg/mL]	also measured
CC(C)C[C@H](NC(=O)[C@H](CC(C)C)NC(=O)[C@H](CC(C)C)NC(=O)[C@H](CCCCN)NC(=O)[C@H](CC(C)C)NC(=O)[C@H](CC(C)C)NC(=O)[C@H](CCCCN)NC(=O)[C@@H](CC(C)C)NC(=O)[C@H](CC(C)C)NC(=O)[C@@H](CCCCN)NC(=O)[C@@H](N)CCCCN)C(N)=O [HP4, KkLlKLLKLLL]	2 (≈ 1.51 µM)	2 (≈ 1.51 µM)	2 (≈ 1.51 µM)	2 to 4	3 (≈ 2.27 µM)	2 to 4	2 to 4	3 (≈ 2.27 µM)	2 to 4	3 (≈ 2.27 µM)	2 (≈ 1.51 µM)	4 (≈ 3.03 µM)	2 (≈ 1.51 µM)	2 (≈ 1.51 µM)	2 (≈ 1.51 µM)	4.6 ± 4.9	>64	2 (≈ 1.51 µM)	4 (≈ 3.03 µM)	2 (≈ 1.51 µM)	MIC E. coli W3110 (E. coli W3110; [3]): 3 µg/mL (≈ 2.27 µM); MIC P. aeruginosa PA14 (P. aeruginosa PA14): 2 µg/mL (≈ 1.51 µM); MIC P. aeruginosaPA14 2P4 (PA14 2P4 (pmrB)): 64 µg/mL (≈ 48.4 µM); MIC Enterobacter cloacae (Enterobacter cloacae): 2 µg/mL (≈ 1.51 µM); MIC P. aeruginosa PA14 4.18 (PA14 4.18 (pmrB)): 32 µg/mL (≈ 24.2 µM); IC50 (HEK293 cells): 43.7 ± 0.8 µM
CC(C)C[C@H](NC(=O)[C@H](CC(C)C)NC(=O)[C@H](CC(C)C)NC(=O)[C@H](CCCCN)NC(=O)[C@H](CC(C)C)NC(=O)[C@H](CC(C)C)NC(=O)[C@@H](CCCCN)NC(=O)[C@H](CC(C)C)NC(=O)[C@H](CC(C)C)NC(=O)[C@@H](CCCCN)NC(=O)[C@H](N)CCCCN)C(N)=O [HP10, kkLLkLLKLLL]	2 (≈ 1.51 µM)	4 (≈ 3.03 µM)	4 (≈ 3.03 µM)	2 (≈ 1.51 µM)	2 (≈ 1.51 µM)	2 (≈ 1.51 µM)	2 (≈ 1.51 µM)	2 (≈ 1.51 µM)	4 (≈ 3.03 µM)	4 (≈ 3.03 µM)	2 (≈ 1.51 µM)	4 (≈ 3.03 µM)	2 (≈ 1.51 µM)	2 (≈ 1.51 µM)	2 (≈ 1.51 µM)	15 ± 0.7	>64	2 (≈ 1.51 µM)	4 (≈ 3.03 µM)	2 (≈ 1.51 µM)	MIC B. cenocepacia (Burkolderia cenocepacia): > 64 µg/mL; MIC P. aeruginosa PA14 (P. aeruginosa PA14): 2 µg/mL (≈ 1.51 µM); MIC P. aeruginosaPA14 2P4 (PA14 2P4 (pmrB)): 32 µg/mL (≈ 24.2 µM); MIC Enterobacter cloacae (Enterobacter cloacae): 2 µg/mL (≈ 1.51 µM); MIC P. aeruginosa PA14 4.18 (PA14 4.18 (pmrB)): 16 µg/mL (≈ 12.1 µM); IC50 (HEK293 cells): 75.1 ± 1.7 µM
CC(C)C[C@H](NC(=O)[C@H](CC(C)C)NC(=O)[C@H](CC(C)C)NC(=O)[C@H](CCCCN)NC(=O)[C@H](CC(C)C)NC(=O)[C@H](CC(C)C)NC(=O)[C@H](CCCCN)NC(=O)[C@H](CC(C)C)NC(=O)[C@H](CC(C)C)NC(=O)[C@H](CCCCN)NC(=O)[C@@H](N)CCCCN)C(N)=O [ln65]	2 (≈ 1.51 µM)	4 (≈ 3.03 µM)	4 (≈ 3.03 µM)	2 to 4	3 (≈ 2.27 µM)	4 (≈ 3.03 µM)	4 (≈ 3.03 µM)	4 (≈ 3.03 µM)	2 to 4	3 (≈ 2.27 µM)	2 (≈ 1.51 µM)	4 (≈ 3.03 µM)	2 (≈ 1.51 µM)	2 (≈ 1.51 µM)	2 (≈ 1.51 µM)	20 ± 0.9	>64	4 (≈ 3.03 µM)	4 (≈ 3.03 µM)	2 to 4	MIC B. cenocepacia (Burkolderia cenocepacia): > 64 µg/mL; MIC P. aeruginosa PA14 (P. aeruginosa PA14): 3 µg/mL (≈ 2.27 µM); MIC P. aeruginosaPA14 2P4 (PA14 2P4 (pmrB)): 32 µg/mL (≈ 24.2 µM); MIC Enterobacter cloacae (Enterobacter cloacae): 2 µg/mL (≈ 1.51 µM); MIC P. aeruginosa PA14 4.18 (PA14 4.18 (pmrB)): 32 µg/mL (≈ 24.2 µM); IC50 (HEK293 cells): 27 ± 5.4 µM
CC(C)C[C@H](NC(=O)[C@H](CC(C)C)NC(=O)[C@H](CC(C)C)NC(=O)[C@@H](CCCCN)NC(=O)[C@H](CC(C)C)NC(=O)[C@H](CC(C)C)NC(=O)[C@@H](CCCCN)NC(=O)[C@H](CC(C)C)NC(=O)[C@H](CC(C)C)NC(=O)[C@@H](CCCCN)NC(=O)[C@H](N)CCCCN)C(N)=O [ln69, kkLLkLLkLLL]	4 (≈ 3.03 µM)	8 (≈ 6.05 µM)	8 (≈ 6.05 µM)	2 to 4	3 (≈ 2.27 µM)	4 (≈ 3.03 µM)	16 (≈ 12.1 µM)	16 (≈ 12.1 µM)	8 (≈ 6.05 µM)	8 (≈ 6.05 µM)	2 (≈ 1.51 µM)	8 (≈ 6.05 µM)	8 (≈ 6.05 µM)	8 (≈ 6.05 µM)	4 (≈ 3.03 µM)	21 ± 3.3	>64	2 (≈ 1.51 µM)	4 (≈ 3.03 µM)	2 (≈ 1.51 µM)	MIC B. cenocepacia (Burkolderia cenocepacia): > 64 µg/mL; MIC P. aeruginosa PA14 (P. aeruginosa PA14): 2 µg/mL (≈ 1.51 µM); MIC P. aeruginosaPA14 2P4 (PA14 2P4 (pmrB)): 32 µg/mL (≈ 24.2 µM); MIC Enterobacter cloacae (Enterobacter cloacae): 4 µg/mL (≈ 3.03 µM); MIC P. aeruginosa PA14 4.18 (PA14 4.18 (pmrB)): 16 µg/mL (≈ 12.1 µM); IC50 (HEK293 cells): 45 ± 8.9 µM
